Reference: patent US9670227B2, “Thienopyrimidine derivatives, a process for their preparation and pharmaceutical compositions containing them” (LES LABORATOIRES SERVIER, priority 2013, dated 2017)
Read-outs that look alike come from different tables or passages of the source.

Columns and labels:
[1] = biological target: Mcl-1 protein (UniProtKB primary accession number: Q07820) (Homo sapiens, UniProt Q07820); assay: Inhibition of Mcl-1 by fluorescence polarisation, Method 1; type: binding; conditions: for IC50: fluorescence polarisation, Method 1, or Method 2, read-out: IC50 (M) Mcl-1 FP
Outline: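 An 11-point DMSO dilution of compound is mixed with buffer (10 mM HEPES, 150 mM NaCl, 0.05% Tween 20, pH 7.4) carrying 1 nM fluorescein-labelled ligand and 5 nM Mcl-1, final concentrations. Displacement is monitored by fluorescence polarisation.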

[2] = tested on: H929 multiple myeloma tumour line; assay: In vitro cytotoxicity, Microculture Tetrazolium Assay; type: cell-based; conditions: H929 cells, 48 hours exposure, MTT, read-out: IC50 (μM) MTT H929
Protocol: The cytotoxicity studies were carried out on the H929 multiple myeloma tumour line.
The cells are distributed onto microplates and exposed to the test compounds for 48 hours.

Sequence of Mcl-1 protein (Q07820 whole entry): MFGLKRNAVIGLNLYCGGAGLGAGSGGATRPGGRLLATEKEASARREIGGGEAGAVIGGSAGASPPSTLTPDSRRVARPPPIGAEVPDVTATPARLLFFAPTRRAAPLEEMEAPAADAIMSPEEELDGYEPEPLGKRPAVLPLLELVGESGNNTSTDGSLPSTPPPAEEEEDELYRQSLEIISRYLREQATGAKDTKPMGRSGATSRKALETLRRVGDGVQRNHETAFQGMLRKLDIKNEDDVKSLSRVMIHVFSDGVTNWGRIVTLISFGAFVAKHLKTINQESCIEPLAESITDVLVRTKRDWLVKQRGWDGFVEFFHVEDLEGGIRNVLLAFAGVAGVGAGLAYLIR

Structure (SMILES)	percentage fluorescence polarisation inhibition, Mcl-1 FP ([1]; partial inhibitors, @ 10 uM test compound) [% @ 10 uM]	IC50 [1] [M]	IC50 [2] [µM]	IC50 ([2]; Homo sapiens, NCI-H929, 48 h) [µM]
CCc1sc2ncnc(O[C@H](Cc3ccccc3)C(=O)O)c2c1-c1ccc(OCCN(C)C)c(Cl)c1C [Example 408, (2R)-2-[((5Ra)-5-{3-chloro-4-[2-(dimethylamino)ethoxy]-2-methylphenyl}-6-ethylthieno[2,3-d]pyrimidin-4-yl)oxy]-3-phenylpropanoic acid]	26.25	–	15.9	–
CCc1sc2ncnc(O[C@H](Cc3ccccc3)C(=O)O)c2c1-c1ccc(OCCN(C)CCO)c(Cl)c1C [Example 411, (2R)-2-{[(5Sa)-5-(3-chloro-4-{2-[(2-hydroxyethyl)(methyl)amino]ethoxy}-2-methylphenyl)-6-ethylthieno[2,3-d]pyrimidin-4-yl]oxy}-3-phenylpropanoic acid]	–	3.4e-08	19	–
CCc1sc2ncnc(OC(Cc3ccccc3)C(=O)O)c2c1-c1ccc(OCCN(CCO)CCO)c(Cl)c1C [Example 412, (2R)-2-{[(5Sa)-5-(4-{2-[bis(2-hydroxyethyl)amino]ethoxy}-3-chloro-2-methylphenyl)-6-ethylthieno[2,3-d]pyrimidin-4-yl]oxy}-3-phenylpropanoic acid]	–	5.1e-08	–	28.7
CCc1sc2ncnc(OC(Cc3ccccc3)C(=O)O)c2c1-c1ccc(OCCN2CCC(O)CC2)c(Cl)c1C [Example 413, (2R)-2-[((5Sa)-5-{3-chloro-4-[2-(4-hydroxypiperidin-1-yl)ethoxy]-2-methylphenyl}-6-ethylthieno[2,3-d]pyrimidin-4-yl)oxy]-3-phenylpropanoic acid]	–	1.3e-08	–	15.8
CCc1sc2ncnc(OC(Cc3ccccc3)C(=O)O)c2c1-c1ccc(OCCn2ccnc2)c(Cl)c1C [Example 418, (2R)-2-[((5Sa)-5-{3-chloro-4-[2-(1H-imidazol-1-yl)ethoxy]-2-methylphenyl}-6-ethylthieno[2,3-d]pyrimidin-4-yl)oxy]-3-phenylpropanoic acid]	–	5.6e-08	–	13.3
CCc1sc2ncnc(OC(Cc3ccccc3)C(=O)O)c2c1-c1ccc(OCCN2CCNC2=O)c(Cl)c1C [Example 419, (2R)-2-[((5Sa)-5-{3-chloro-2-methyl-4-[2-(2-oxoimidazolidin-1-yl)ethoxy]phenyl}-6-ethylthieno[2,3-d]pyrimidin-4-yl)oxy]-3-phenylpropanoic acid]	–	3.4e-08	–	21.5
CCc1sc2ncnc(OC(Cc3ccccc3)C(=O)O)c2c1-c1ccc(OCCN2CCOCC2)c(Cl)c1C [Example 420, (2R)-2-[((5Sa)-5-{3-chloro-2-methyl-4-[2-(morpholin-4-yl)ethoxy]phenyl}-6-ethylthieno[2,3-d]pyrimidin-4-yl)oxy]-3-phenylpropanoic acid]	–	4e-08	–	15.6
CCc1sc2ncnc(OC(Cc3ccccc3)C(=O)O)c2c1-c1ccc(OCCNC(C)=O)c(Cl)c1C [Example 422, (2R)-2-[((5Sa)-5-{4-[2-(acetylamino)ethoxy]-3-chloro-2-methylphenyl}-6-ethylthieno[2,3-d]pyrimidin-4-yl)oxy]-3-phenylpropanoic acid]	–	1.4e-08	–	14.4
CCc1sc2ncnc(OC(Cc3ccccc3)C(=O)O)c2c1-c1cc(CN2CCN(C)CC2)c(OC)c(Cl)c1C [Example 434, (2R)-2-[((5Sa)-5-{3-chloro-4-methoxy-2-methyl-5-[(4-methylpiperazin-1-yl)methyl]phenyl}-6-ethylthieno[2,3-d]pyrimidin-4-yl)oxy]-3-phenylpropanoic acid]	–	1.7e-07	–	11.3
CCc1sc2ncnc(OC(Cc3ccccc3)C(=O)O)c2c1-c1cc([N+](=O)[O-])c(OCCN2CCN(C)CC2)c(Cl)c1C [Example 435, (2R)-2-[((5Sa)-5-{3-chloro-2-methyl-4-[2-(4-methylpiperazin-1-yl)ethoxy]-5-nitrophenyl}-6-ethylthieno[2,3-d]pyrimidin-4-yl)oxy]-3-phenylpropanoic acid]	–	3.2e-07	–	11.1
CCc1sc2ncnc(OC(Cc3ccccc3)C(=O)O)c2c1-c1cc(Cl)c(OCCN2CCN(C)CC2)c(Cl)c1C [Example 436, (2R)-2-[((5Sa)-5-{3,5-dichloro-2-methyl-4-[2-(4-methylpiperazin-1-yl)ethoxy]phenyl}-6-ethylthieno[2,3-d]pyrimidin-4-yl)oxy]-3-phenylpropanoic acid]	–	2.9e-08	–	15.1
CCc1sc2ncnc(OC(Cc3ccccc3)C(=O)O)c2c1-c1cc(N)c(OCCN2CCN(C)CC2)c(Cl)c1C [Example 437, (2R)-2-[((5Sa)-5-{5-amino-3-chloro-2-methyl-4-[2-(4-methylpiperazin-1-yl)ethoxy]phenyl}-6-ethylthieno[2,3-d]pyrimidin-4-yl)oxy]-3-phenylpropanoic acid]	–	4.5e-08	–	20.3
CCc1sc2ncnc(OC(Cc3ccccc3)C(=O)O)c2c1-c1cc2nc(CN3CCN(C)CC3)oc2c(Cl)c1C [Example 445, (2R)-2-[((5Sa)-5-{7-chloro-6-methyl-2-[(4-methylpiperazin-1-yl)methyl]-1,3-benzoxazol-5-yl}-6-ethylthieno[2,3-d]pyrimidin-4-yl)oxy]-3-phenylpropanoic acid]	–	1.3e-07	–	21
CCc1sc2ncnc(OC(Cc3ccccc3)C(=O)O)c2c1-c1cc2nc(CN3CCOCC3)oc2c(Cl)c1C [Example 446, (2R)-2-({(5Sa)-5-[7-chloro-6-methyl-2-(morpholin-4-ylmethyl)-1,3-benzoxazol-5-yl]-6-ethylthieno[2,3-d]pyrimidin-4-yl}oxy)-3-phenylpropanoic acid]	–	1.1e-07	–	25.7
CCc1sc2ncnc(OC(Cc3ccccc3OCc3ccnc(OC)n3)C(=O)O)c2c1-c1ccc(OCCN2CCN(C)CC2)c(Cl)c1C [Example 455, (2R)-2-[((5Sa)-5-{3-chloro-2-methyl-4-[2-(4-methylpiperazin-1-yl)ethoxy]phenyl}-6-ethylthieno[2,3-d]pyrimidin-4-yl)oxy]-3-{2-[(2-methoxypyrimidin-4-yl)methoxy]phenyl}propanoic acid]	–	6.2e-09	–	0.339

The next lines start with results.

percentage fluorescence polarisation inhibition, Mcl-1 FP ([1]; partial inhibitors, @ 10 uM test compound) [% @ 10 uM]	IC50 [1] [M]	Structure (SMILES)	IC50 [2] [µM]	IC50 ([2]; Homo sapiens, NCI-H929, 48 h) [µM]
–	8e-09	CCc1sc2ncnc(OC(Cc3ccccc3OCc3ccnn3CC)C(=O)O)c2c1-c1ccc(OCCN2CCN(C)CC2)c(Cl)c1C [Example 456, (2R)-2-[((5Sa)-5-{3-chloro-2-methyl-4-[2-(4-methylpiperazin-1-yl)ethoxy]phenyl}-6-ethylthieno[2,3-d]pyrimidin-4-yl)oxy]-3-{2-[(1-ethyl-1H-pyrazol-5-yl)methoxy]phenyl}propanoic acid]	–	0.513
–	1.3e-07	CCc1sc2ncnc(OC(Cc3cccc4c3OCO4)C(=O)O)c2c1-c1ccc(OCCN2CCN(C)CC2)c(Cl)c1C [Example 460, (2R)-3-(1,3-benzodioxol-4-yl)-2-[((5Sa)-5-{3-chloro-2-methyl-4-[2-(4-methylpiperazin-1-yl)ethoxy]phenyl}-6-ethylthieno[2,3-d]pyrimidin-4-yl)oxy]propanoic acid]	–	6.82
–	8.5e-08	CCc1sc2ncnc(OC(Cc3cccc4ccoc34)C(=O)O)c2c1-c1ccc(OCCN2CCN(C)CC2)c(Cl)c1C [Example 461, (2R)-3-(1-benzofuran-7-yl)-2-[((5Sa)-5-{3-chloro-2-methyl-4-[2-(4-methylpiperazin-1-yl)ethoxy]phenyl}-6-ethylthieno[2,3-d]pyrimidin-4-yl)oxy]propanoic acid]	–	4.86
–	4.6e-08	CCc1sc2ncnc(OC(Cc3ccccc3F)C(=O)O)c2c1-c1ccc(OCCN2CCN(C)CC2)c(Cl)c1C [Example 463, (2R)-2-[((5Sa)-5-{3-chloro-2-methyl-4-[2-(4-methylpiperazin-1-yl)ethoxy]phenyl}-6-ethylthieno[2,3-d]pyrimidin-4-yl)oxy]-3-(2-fluorophenyl)propanoic acid]	–	5.11
–	2.5e-08	CC#Cc1sc2ncnc(OC(Cc3ccccc3OC)C(=O)O)c2c1-c1ccc(OCCC2CCN(C)CC2)c(Cl)c1C [Example 465, (2R)-2-{[(5Sa)-5-{3-chloro-2-methyl-4-[2-(1-methylpiperidin-4-yl)ethoxy]phenyl}-6-(prop-1-yn-1-yl)thieno[2,3-d]pyrimidin-4-yl]oxy}-3-(2-methoxyphenyl)propanoic acid]	–	2.06
–	3.9e-08	CC#Cc1sc2ncnc(OC(Cc3ccccc3OC)C(=O)O)c2c1-c1ccc(OCCN(C(C)C)C(C)C)c(Cl)c1C [Example 466, (2R)-2-{[(5Sa)-5-(3-chloro-4-{2-[di(propan-2-yl)amino]ethoxy}-2-methylphenyl)-6-(prop-1-yn-1-yl)thieno[2,3-d]pyrimidin-4-yl]oxy}-3-(2-methoxyphenyl)propanoic acid]	–	3.35
–	1.1e-08	CC#Cc1sc2ncnc(OC(Cc3ccccc3OC)C(=O)O)c2c1-c1ccc(OCCN(C)C)c(Cl)c1C [Example 467, (2R)-2-{[(5Sa)-5-{3-chloro-4-[2-(dimethylamino)ethoxy]-2-methylphenyl}-6-(prop-1-yn-1-yl)thieno[2,3-d]pyrimidin-4-yl]oxy}-3-(2-methoxyphenyl)propanoic acid]	–	0.502
–	8.6e-09	CC#Cc1sc2ncnc(OC(Cc3ccccc3OC)C(=O)O)c2c1-c1ccc(OCCN2CCCC2)c(Cl)c1C [Example 468, (2R)-2-{[(5Sa)-5-{3-chloro-2-methyl-4-[2-(pyrrolidin-1-yl)ethoxy]phenyl}-6-(prop-1-yn-1-yl)thieno[2,3-d]pyrimidin-4-yl]oxy}-3-(2-methoxyphenyl)propanoic acid]	–	2.02
